A word on the AC50: it is the concentration at which the activity in the assay is half-maximal. A lower AC50 goes with activity at low concentration.

Assay [1] addresses T1, Androgen receptor (Rattus norvegicus, UniProt P15207).
T1 sequence (P15207 whole entry): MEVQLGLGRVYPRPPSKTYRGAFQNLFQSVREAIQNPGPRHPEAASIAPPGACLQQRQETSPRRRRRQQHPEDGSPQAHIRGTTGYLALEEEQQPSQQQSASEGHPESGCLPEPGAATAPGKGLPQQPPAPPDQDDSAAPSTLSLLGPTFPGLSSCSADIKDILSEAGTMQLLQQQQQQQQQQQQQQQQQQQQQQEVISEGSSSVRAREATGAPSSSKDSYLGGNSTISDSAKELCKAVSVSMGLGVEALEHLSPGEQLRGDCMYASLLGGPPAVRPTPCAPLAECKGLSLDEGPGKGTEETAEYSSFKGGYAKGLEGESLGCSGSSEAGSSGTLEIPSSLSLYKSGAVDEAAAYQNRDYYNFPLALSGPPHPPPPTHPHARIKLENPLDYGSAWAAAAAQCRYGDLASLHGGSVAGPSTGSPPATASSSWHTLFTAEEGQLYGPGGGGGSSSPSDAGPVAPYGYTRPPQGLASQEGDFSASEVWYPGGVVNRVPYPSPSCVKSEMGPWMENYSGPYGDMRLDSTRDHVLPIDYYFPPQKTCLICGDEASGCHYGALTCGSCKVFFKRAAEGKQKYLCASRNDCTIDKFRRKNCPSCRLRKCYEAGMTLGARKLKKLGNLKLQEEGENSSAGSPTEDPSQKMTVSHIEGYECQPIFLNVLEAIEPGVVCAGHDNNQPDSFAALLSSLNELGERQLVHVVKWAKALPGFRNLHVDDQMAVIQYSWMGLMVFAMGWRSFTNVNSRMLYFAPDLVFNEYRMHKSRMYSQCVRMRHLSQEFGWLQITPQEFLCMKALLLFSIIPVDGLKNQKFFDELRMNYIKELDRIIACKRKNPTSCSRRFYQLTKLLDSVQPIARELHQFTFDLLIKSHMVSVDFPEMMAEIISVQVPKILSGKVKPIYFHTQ

The target in another assay is T2, Progesterone receptor (Homo sapiens, UniProt P06401).
T2 sequence (P06401 whole entry): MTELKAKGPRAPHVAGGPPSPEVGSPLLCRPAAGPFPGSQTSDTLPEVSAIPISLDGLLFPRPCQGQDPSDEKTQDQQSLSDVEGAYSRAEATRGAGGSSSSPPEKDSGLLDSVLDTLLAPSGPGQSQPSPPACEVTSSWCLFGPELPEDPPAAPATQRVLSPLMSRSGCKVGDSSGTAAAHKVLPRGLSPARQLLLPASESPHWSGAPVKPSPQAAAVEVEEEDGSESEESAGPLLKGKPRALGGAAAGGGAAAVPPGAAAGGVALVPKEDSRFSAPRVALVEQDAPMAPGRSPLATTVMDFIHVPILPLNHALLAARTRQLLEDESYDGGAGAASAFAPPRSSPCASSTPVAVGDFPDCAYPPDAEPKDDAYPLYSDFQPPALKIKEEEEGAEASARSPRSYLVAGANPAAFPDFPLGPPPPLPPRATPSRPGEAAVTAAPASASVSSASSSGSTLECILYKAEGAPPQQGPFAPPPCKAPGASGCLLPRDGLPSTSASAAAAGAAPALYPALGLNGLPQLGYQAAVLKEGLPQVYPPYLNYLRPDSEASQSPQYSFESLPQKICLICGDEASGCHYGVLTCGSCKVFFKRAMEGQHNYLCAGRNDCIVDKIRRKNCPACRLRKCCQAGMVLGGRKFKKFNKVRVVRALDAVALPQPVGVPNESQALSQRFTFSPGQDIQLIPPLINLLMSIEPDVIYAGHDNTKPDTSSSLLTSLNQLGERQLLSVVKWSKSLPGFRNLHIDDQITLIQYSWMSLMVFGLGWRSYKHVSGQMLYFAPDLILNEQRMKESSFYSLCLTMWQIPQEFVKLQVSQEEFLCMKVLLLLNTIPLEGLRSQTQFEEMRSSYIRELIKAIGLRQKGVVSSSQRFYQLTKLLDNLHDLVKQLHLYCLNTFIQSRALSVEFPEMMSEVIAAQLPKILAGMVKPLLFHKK

Assay [2] concerns the target 5-hydroxytryptamine receptor 2B (Homo sapiens, UniProt P41595).
Assay [3] concerns the target T1, Androgen receptor. The assay is classed as functional.
Assay [4] has as its target 5-hydroxytryptamine receptor 2A (Homo sapiens, UniProt P28223).
In assay [5] the target is T3, Muscarinic acetylcholine receptor M2 (Homo sapiens, UniProt P08172).
T3 sequence (P08172 whole entry): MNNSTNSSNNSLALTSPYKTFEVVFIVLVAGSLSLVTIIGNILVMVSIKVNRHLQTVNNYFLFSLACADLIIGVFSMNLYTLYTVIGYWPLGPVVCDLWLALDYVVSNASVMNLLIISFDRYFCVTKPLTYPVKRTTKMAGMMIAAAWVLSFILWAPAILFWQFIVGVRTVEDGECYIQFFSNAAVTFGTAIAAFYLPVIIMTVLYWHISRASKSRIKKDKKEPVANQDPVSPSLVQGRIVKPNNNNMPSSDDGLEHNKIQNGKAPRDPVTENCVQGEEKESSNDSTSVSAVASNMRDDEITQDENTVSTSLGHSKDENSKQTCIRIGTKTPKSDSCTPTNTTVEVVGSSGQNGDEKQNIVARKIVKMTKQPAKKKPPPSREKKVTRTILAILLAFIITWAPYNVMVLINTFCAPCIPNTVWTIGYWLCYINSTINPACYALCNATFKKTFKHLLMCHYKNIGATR

Assay [6] has as its target Beta-3 adrenergic receptor (Homo sapiens, UniProt P13945).
In assay [7] the target is T4, Neuropeptide Y receptor type 2 (Homo sapiens, UniProt P49146).
T4 sequence (P49146 whole entry): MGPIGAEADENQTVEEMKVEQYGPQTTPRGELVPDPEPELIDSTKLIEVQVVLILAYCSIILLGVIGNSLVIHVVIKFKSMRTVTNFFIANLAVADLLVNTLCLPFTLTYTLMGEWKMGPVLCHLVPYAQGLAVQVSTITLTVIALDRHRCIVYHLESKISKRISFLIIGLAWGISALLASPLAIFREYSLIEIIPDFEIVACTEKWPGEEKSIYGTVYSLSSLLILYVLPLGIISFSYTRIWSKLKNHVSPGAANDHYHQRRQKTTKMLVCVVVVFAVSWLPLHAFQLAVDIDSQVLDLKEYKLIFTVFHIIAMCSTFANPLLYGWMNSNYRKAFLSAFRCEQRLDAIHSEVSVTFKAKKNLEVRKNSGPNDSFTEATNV

The target in the next assay is Glucagon receptor (Homo sapiens, UniProt P47871).
Chain of Glucagon receptor (P47871 whole entry): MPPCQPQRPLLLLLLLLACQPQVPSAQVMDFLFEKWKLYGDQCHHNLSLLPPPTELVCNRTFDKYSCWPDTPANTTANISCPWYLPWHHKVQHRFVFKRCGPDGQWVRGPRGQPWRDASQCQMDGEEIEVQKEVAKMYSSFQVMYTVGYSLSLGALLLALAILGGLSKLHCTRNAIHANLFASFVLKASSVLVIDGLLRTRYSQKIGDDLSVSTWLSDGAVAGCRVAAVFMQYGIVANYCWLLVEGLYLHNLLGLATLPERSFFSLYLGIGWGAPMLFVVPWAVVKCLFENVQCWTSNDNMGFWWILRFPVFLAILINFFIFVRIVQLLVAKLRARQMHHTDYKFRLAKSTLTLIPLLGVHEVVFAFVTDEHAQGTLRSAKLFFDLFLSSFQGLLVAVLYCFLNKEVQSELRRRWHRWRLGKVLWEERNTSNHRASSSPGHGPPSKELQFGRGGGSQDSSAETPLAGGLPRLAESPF
Also: assay procedure not described here.

Chain of 5-hydroxytryptamine receptor 2A (P28223 whole entry): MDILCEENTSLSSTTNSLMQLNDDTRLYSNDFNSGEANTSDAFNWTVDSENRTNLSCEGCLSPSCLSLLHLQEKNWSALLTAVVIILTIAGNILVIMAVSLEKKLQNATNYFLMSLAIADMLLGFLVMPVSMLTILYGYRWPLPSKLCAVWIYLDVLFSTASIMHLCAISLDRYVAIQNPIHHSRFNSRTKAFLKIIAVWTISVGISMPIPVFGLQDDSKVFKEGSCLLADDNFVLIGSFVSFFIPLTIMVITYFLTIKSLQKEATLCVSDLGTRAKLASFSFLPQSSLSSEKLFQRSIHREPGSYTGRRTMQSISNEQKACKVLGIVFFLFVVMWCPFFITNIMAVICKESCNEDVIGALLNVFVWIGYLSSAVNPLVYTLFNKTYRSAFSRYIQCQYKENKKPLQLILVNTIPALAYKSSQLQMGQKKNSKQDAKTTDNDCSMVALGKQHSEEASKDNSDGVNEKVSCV
Chain of 5-hydroxytryptamine receptor 2B (P41595 whole entry): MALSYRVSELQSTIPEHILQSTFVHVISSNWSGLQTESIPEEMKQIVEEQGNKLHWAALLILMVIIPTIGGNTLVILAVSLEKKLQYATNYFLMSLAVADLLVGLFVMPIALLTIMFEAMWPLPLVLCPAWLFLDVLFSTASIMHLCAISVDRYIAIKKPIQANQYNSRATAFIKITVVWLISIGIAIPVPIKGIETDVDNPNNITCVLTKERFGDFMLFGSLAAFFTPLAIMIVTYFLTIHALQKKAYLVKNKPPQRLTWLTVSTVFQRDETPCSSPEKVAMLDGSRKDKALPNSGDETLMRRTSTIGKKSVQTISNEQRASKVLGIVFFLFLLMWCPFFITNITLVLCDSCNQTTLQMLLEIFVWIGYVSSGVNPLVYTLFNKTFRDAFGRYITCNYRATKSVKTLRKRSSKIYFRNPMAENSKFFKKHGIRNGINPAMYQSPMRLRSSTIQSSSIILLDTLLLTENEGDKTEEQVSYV
Chain of Beta-3 adrenergic receptor (P13945 whole entry): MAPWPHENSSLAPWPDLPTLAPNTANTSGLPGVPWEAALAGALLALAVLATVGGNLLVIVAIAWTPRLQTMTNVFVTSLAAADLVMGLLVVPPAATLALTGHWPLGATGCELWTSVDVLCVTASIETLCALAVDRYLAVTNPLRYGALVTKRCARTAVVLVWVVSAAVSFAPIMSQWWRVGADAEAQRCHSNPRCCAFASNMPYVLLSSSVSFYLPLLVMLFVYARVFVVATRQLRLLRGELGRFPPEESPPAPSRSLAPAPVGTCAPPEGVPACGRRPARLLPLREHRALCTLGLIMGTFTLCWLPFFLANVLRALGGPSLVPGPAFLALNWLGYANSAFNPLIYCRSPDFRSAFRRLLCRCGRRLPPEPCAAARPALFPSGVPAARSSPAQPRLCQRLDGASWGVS

On to `CC(=O)O[C@@]12CO[C@@H]1C[C@H](O)[C@@]1(C)C(=O)[C@H](O)C3=C(C)[C@@H](OC(=O)[C@H](O)[C@@H](NC(=O)OC(C)(C)C)c4ccccc4)C[C@@](O)([C@@H](OC(=O)c4ccccc4)[C@H]21)C3(C)C` [DOCETAXEL ANHYDROUS], for which the half-maximal activity concentration (AC50) on Androgen receptor [1] was over 30 µM.
On the same count and under the same terms, the value for `CCC1(C2=CCCCCC2)C(=O)NC(=O)NC1=O` [HEPTABARBITAL] was over 10 µM.
In the case of `CCN1CCC[C@H]1CNC(=O)c1cc(S(N)(=O)=O)ccc1OC` [LEVOSULPIRIDE], the AC50 on Androgen receptor [1] and at Progesterone receptor was over 30 µM in each case.
Regarding `CCCCCCCCOc1ccccc1C(=O)Nc1ccc(C(=O)OCC[N+](C)(CC)CC)cc1` [OTILONIUM BROMIDE], in assay [2], the AC50 was 0.712 µM.
On to `COc1ccc(C(=O)N2CCN(c3ccc4c(c3)CCC(=O)N4)CC2)cc1OC` [VESNARINONE], for which the activity at Androgen receptor [3] was half-maximal at 2.5 µM (AC50).
On Progesterone receptor, `CCN(CC)CCOC(=O)c1ccc(N)cc1` [PROCAINE] showed an AC50 of over 30 µM.
At Androgen receptor [1], `CN[C@@H]1[C@H](O)[C@H](NC)[C@H]2O[C@@]3(O)C(=O)C[C@@H](C)O[C@H]3O[C@@H]2[C@H]1O` [SPECTINOMYCIN] gave an AC50 of over 10 µM.
On to `O=C1CN=C(c2ccccc2)c2cc(Cl)ccc2N1CC(F)(F)F` [HALAZEPAM], for which the concentration at half-maximal activity (AC50) on Androgen receptor [3] was over 30 µM.
For `CCCCCCCCCCCC[N+](C)(C)CCOc1ccccc1` [DOMIPHEN], the AC50 in assay [4] is 0.14 µM.
In the case of `CN1CC(=O)N2[C@H](c3ccc4c(c3)OCO4)c3[nH]c4ccccc4c3C[C@@H]2C1=O`, the AC50 was over 10 µM in [4] and over 30 µM on Progesterone receptor.
At Androgen receptor [1], `CN1CC[C@]23CCCC[C@H]2[C@H]1Cc1ccc(O)cc13` [LEVORPHANOL] showed an AC50 of over 10 µM.
In [5], `CN1CCCN=C1COC(=O)C(O)(c1ccccc1)C1CCCCC1` (stereo not given) [OXYPHENCYCLIMINE] yielded an AC50 of 0.0263 µM.
On the same count and under the same terms, with `CC(C)[N+](C)(CCC(C(N)=O)(c1ccccc1)c1ccccc1)C(C)C` [ISOPROPAMIDE] the figure was 0.012 µM.
As for `CC(Cc1ccccc1)NCCC(c1ccccc1)c1ccccc1` (stereo not given) [PRENYLAMINE], the values for the AC50 (in assay [4]; at Progesterone receptor) were 3.38 µM and over 30 µM, respectively.
Consider `CN1CCN(C(=O)OC2c3nccnc3C(=O)N2c2ccc(Cl)cn2)CC1` (stereo not given) [ZOPICLONE], for which the AC50 in assay [4] is over 10 µM; in assay [6], over 30 µM; in assay [2], over 10 µM; on Progesterone receptor, over 30 µM; in assay [7], over 30 µM; at Glucagon receptor, over 30 µM.
As for `COc1ccc2cccc(CCNC(C)=O)c2c1` [AGOMELATINE], the AC50 on Androgen receptor [1] was over 30 µM; in [5] it was over 10 µM; in assay [6], over 30 µM; in assay [2], 0.879 µM; on Progesterone receptor, over 30 µM; in assay [7], over 30 µM. This compound had an AC50 on Glucagon receptor of over 30 µM.
For the compound `CC(C)c1c(C(=O)Nc2ccccc2)c(-c2ccccc2)c(-c2ccc(F)cc2)n1CC[C@@H](O)C[C@@H](O)CC(=O)O` [ATORVASTATIN], the AC50 (in [6]; on Progesterone receptor; in assay [7]; at Glucagon receptor) was over 30 µM each time.
In turn, `CN1CCC2=C(C1)C(c1ccccc1)c1ccccc12` (stereo not given) [PHENINDAMINE] yielded a half-maximal activity concentration (AC50) at Androgen receptor [1] of over 30 µM.
The same measure, in the same setting: the value for `CC1=CC(=O)c2ccccc2C1=O` [MENADIONE] was over 30 µM.
As to `Cc1cc(-c2ccccc2)nnc1NCCN1CCOCC1` [MINAPRINE], the AC50 in assay [5] was over 10 µM; in assay [4], over 10 µM; in assay [6], over 30 µM; in assay [2] it was 1.4 µM; at Progesterone receptor, over 30 µM; in assay [7] it was over 30 µM. The compound further had a half-maximal activity concentration (AC50) at Glucagon receptor of over 30 µM.
`C1COC(NC(C2CC2)C2CC2)=N1` [RILMENIDINE]: the AC50 in assay [4] is over 10 µM; on Progesterone receptor, over 30 µM.
Take `C#CCN[C@@H]1CCc2ccccc21` [RASAGILINE]: the half-maximal activity concentration (AC50) on Androgen receptor [1] was over 30 µM.
Same read-out and setting: with `COC(=O)C1=C(C)NC(C)=C(C(=O)OC(C)C)C1c1cccc2nonc12` (stereo not given) [ISRADIPINE] the figure was over 30 µM.
On to `NC(=O)C[S+]([O-])C(c1ccccc1)c1ccccc1` (stereo not given) [MODAFINIL], for which the AC50 in assay [5] was over 10 µM; in assay [6] it was over 30 µM; in assay [2], over 10 µM; at Progesterone receptor, over 30 µM; in [7] it was over 30 µM; at Glucagon receptor, over 30 µM.
Turning to `CCNC(C)Cc1cccc(C(F)(F)F)c1` (stereo not given) [FENFLURAMINE], the AC50 is over 10 µM in assay [5]; over 30 µM in assay [6]; over 30 µM at Progesterone receptor; over 30 µM in assay [7]; over 30 µM at Glucagon receptor.
For `Cc1ccc(-c2nc3ccc(C)cn3c2CC(=O)N(C)C)cc1` [ZOLPIDEM], the AC50 was over 10 µM in assay [5]; over 10 µM in assay [4]; over 30 µM in assay [6]; over 10 µM in [2]; over 30 µM at Progesterone receptor; over 30 µM in assay [7]. The AC50 at Glucagon receptor was over 30 µM.
Take `CN1CCc2cccc3c2[C@H]1Cc1ccc(O)c(O)c1-3` [APOMORPHINE]: the AC50 in [5] was over 10 µM; in assay [4], 0.964 µM; in assay [6] it was over 30 µM; in assay [2], 1.27 µM; at Progesterone receptor it was 26 µM; in assay [7] it was over 30 µM. The same compound returned an AC50 on Glucagon receptor of over 30 µM.
For the compound `O=C(O)CCCc1ccccc1` [PHENYLBUTANOIC ACID], the AC50 was over 10 µM in assay [5]; over 10 µM in [4]; over 30 µM in assay [6]; over 10 µM in assay [2]; over 30 µM on Progesterone receptor; over 30 µM in [7]. On Glucagon receptor, this compound came in with a half-maximal activity concentration (AC50) of over 30 µM.
Turning to `CN[C@@H](C)[C@H](O)c1ccccc1` [EPHEDRINE], the AC50 in [5] was over 10 µM; in assay [6] it was over 30 µM; in [2], over 10 µM; at Progesterone receptor it was over 30 µM; in [7], over 30 µM; at Glucagon receptor, over 30 µM.

The record behind these values is ChEMBL document CHEMBL5291721, “A preclinical secondary pharmacology resource illuminates target-adverse drug reaction associations of marketed drugs” (Nat Commun, 2023).
